Measurements from patent publication US6355799B1, “Substituted benzene compounds, process for their preparation, and herbicidal and defoliant compositions containing them” (ISK Americas Incorporated, priority 1997, dated 2002).

How the values were obtained:
Format in all cases: in vivo
[1] = system: redroot pigweed (Amaranthus retroflexus, AMARE); test: Pre-emerge test, greenhouse herbicide activity screening; conditions: pre-emerge, 14 days after application, scale 0-100
Method in brief: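 Rating: 0–100 visual injury, 14 DAA. Application: acetone, 187 l/ha, 15–1000 g ai/ha, flat-fan track sprayer with nozzle 40–45 cm above soil or canopy. Post-emerge runs used 0.25% v/v surfactant on 2–3 leaf plants.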

[2] = system: barnyardgrass (Echinochloa crus-galli, ECHCG); test: as above; conditions: pre-emerge, 14 days after application, scale 0-100
Text: (§1) A standard greenhouse herbicide activity screening system was used to evaluate the herbicidal efficacy and crop safety of these test compounds. Seven broadleaf weed species including redroot pigweed (Amaranthus retroflexus, AMARE, velvetleaf (Abutilon theophrasti, ABUTH), sicklepod (Cassia obtusifolia, CASOB), ivyleaf morningglory (Ipomoea hederacea, IPOHE), lambsquarters (Chenopodium album, CHEAL), common ragweed (Ambrosia artemisizfolia L., AMBEL), and cocklebur (Xanthium strumarium, XANST) were used as test species. Four grass weed species including green foxtail (Setaria viridis, SETVI), barnyardgrass (Echinochloa crus-galli, ECHCG), johnsongrass (Sorghum halepense, SORHA), and large crabgrass (Digitaria sanguinalis, DIGSA) were also used. In addition, three crop species, field corn (Zea mays L., var. Dekalb 535, CORN), soybean (Glycine max L., var. Pella 86, SOY), and is upland rice (Oryza sp., var. Tebonnet, RICE) were included.
(§2) All plants were grown in 10 cm square plastic pots which were filled with a sandy loam soil mix. For pre-emerge tests, seeds were planted one day prior to application of the test compounds. For post-emerge tests, seeds were planted 8-21 days prior to the test to allow emergence and good foliage development prior to application of the test substances. At the time of the post-emerge application, plants of all species were usually at the 2-3 leaf stage of development.
(§3) All test compounds Were dissolved in acetone and applied to the test units in a volume of 187 l /ha. Test materials were applied at rates ranging from 15 g ai/ha to 1000 g ai/ha using a track sprayer equipped with a TJ8001E even flow flat fan spray nozzle. Plants were arranged on a shelf so that the top of the canopy (post-emerge) or top of the soil surface (pre-emerge) was 40-45 cm below the nozzle. Pressurized air was used to force the test solution through the nozzle as it was mechanically advanced (via electrically driven chain drive) over the top of all test plants/pots. This application simulates a typical commercial field herbicide application.
(§4) In the post-emerge test, a commercial non-ionic surfactant was also included (0.25% v/v) to enhance wetting of the leaf surfaces of target plants. Immediately after application, test units of the pre-emerge applications were watered at the soil surface to incorporate the test materials. Subsequently, these test units were bottom-watered. Post-emerge test units were always bottom-watered.
(§5) At 14 days after application of the test materials, phytotoxicity ratings were recorded. A rating scale of 0-100 was used as previously described in Research Methods in Weed Science, 2nd edition, B. Truelove, Ed., Southern Weed Science Society, Auburn University, Auburn, Ala. 1977. Briefly, “0” corresponds to no damage and “100” corresponds to complete death of all plants in the test unit. This scale was used both to determine efficacy against weed species and damage to crop species. Herbicide activity data for various compounds of this invention, which are shown by compound No. in Tables 1-8, are shown in Tables 11 and 12.

[3] = system: green foxtail (Setaria viridis, SETVI); test: as above; conditions: pre-emerge, 14 days after application, scale 0-100
Text: as §1, §2, §3, §4, §5

[4] = system: ivyleaf morningglory (Ipomoea hederacea, IPOHE); test: as above; conditions: pre-emerge, 14 days after application, scale 0-100
Text: as §1, §2, §3, §4, §5

[5] = system: lambsquarters (Chenopodium album, CHEAL); test: as above; conditions: pre-emerge, 14 days after application, scale 0-100
Text: as §1, §2, §3, §4, §5

[6] = system: large crabgrass (Digitaria sanguinalis, DIGSA); test: as above; conditions: pre-emerge, 14 days after application, scale 0-100
Text: as §1, §2, §3, §4, §5

[7] = system: sicklepod (Cassia obtusifolia, CASOB); test: as above; conditions: pre-emerge, 14 days after application, scale 0-100
Text: as §1, §2, §3, §4, §5

[8] = system: velvetleaf (Abutilon theophrasti, ABUTH); test: as above; conditions: pre-emerge, 14 days after application, scale 0-100
Text: as §1, §2, §3, §4, §5

[9] = system: field corn (Zea mays L., var. Dekalb 535, CORN); test: Pre-emerge test, crop safety; conditions: pre-emerge, 14 days after application, scale 0-100
Text: as §1, §2, §3, §4, §5

[10] = system: upland rice (Oryza sp., var. Tebonnet, RICE); test: Pre-emerge test, crop safety; conditions: pre-emerge, 14 days after application, scale 0-100
Text: as §1, §2, §3, §4, §5

[11] = system: barnyardgrass (Echinochloa crus-galli, ECHCG); test: Post-emerge test, greenhouse herbicide activity screening; conditions: post-emerge, 14 days after application, rating scale 0-100
Text: as §1, §2, §3, §4, §5

[12] = system: green foxtail (Setaria viridis, SETVI); test: as above; conditions: post-emerge, 14 days after application, rating scale 0-100
Text: as §1, §2, §3, §4, §5

[13] = system: ivyleaf morningglory (Ipomoea hederacea, IPOHE); test: as above; conditions: post-emerge, 14 days after application, rating scale 0-100
Text: as §1, §2, §3, §4, §5

[14] = system: lambsquarters (Chenopodium album, CHEAL); test: as above; conditions: post-emerge, 14 days after application, rating scale 0-100
Text: as §1, §2, §3, §4, §5

[15] = system: large crabgrass (Digitaria sanguinalis, DIGSA); test: as above; conditions: post-emerge, 14 days after application, rating scale 0-100
Text: as §1, §2, §3, §4, §5

[16] = system: redroot pigweed (Amaranthus retroflexus, AMARE); test: as above; conditions: post-emerge, 14 days after application, rating scale 0-100
Text: as §1, §2, §3, §4, §5

[17] = system: sicklepod (Cassia obtusifolia, CASOB); test: as above; conditions: post-emerge, 14 days after application, rating scale 0-100
Text: as §1, §2, §3, §4, §5

[18] = system: velvetleaf (Abutilon theophrasti, ABUTH); test: as above; conditions: post-emerge, 14 days after application, rating scale 0-100
Text: as §1, §2, §3, §4, §5

[19] = system: field corn (Zea mays L., var. Dekalb 535, CORN); test: Post-emerge test, crop safety; conditions: post-emerge, 14 days after application, rating scale 0-100
Text: as §1, §2, §3, §4, §5

[20] = system: upland rice (Oryza sp., var. Tebonnet, RICE); test: Post-emerge test, crop safety; conditions: post-emerge, 63 g ai/ha, 14 days after application, rating scale 0-100
Text: as §1, §2, §3, §4, §5

Which results are given for `C=Cc1ccc(C(=O)Nc2c(OC)c(Br)cc(F)c2-n2c(=O)cc(C(F)(F)F)n(C)c2=O)cc1` [2-182]?
phytotoxicity rating AMARE ([1]; 63 g ai/ha): 90; phytotoxicity rating AMARE ([1]; 250 g ai/ha): 100; phytotoxicity rating ECHCG ([2]; 63 g ai/ha): 10; phytotoxicity rating ECHCG ([2]; 250 g ai/ha): 60; phytotoxicity rating SETVI ([3]; 63 g ai/ha): 30; phytotoxicity rating SETVI ([3]; 250 g ai/ha): 90; phytotoxicity rating IPOHE ([4]; 63 g ai/ha): 0; phytotoxicity rating IPOHE ([4]; 250 g ai/ha): 100; phytotoxicity rating CHEAL ([5]; 63 g ai/ha): 100; phytotoxicity rating CHEAL ([5]; 250 g ai/ha): 100; phytotoxicity rating DIGSA ([6]; 63 g ai/ha): 30; phytotoxicity rating DIGSA ([6]; 250 g ai/ha): 90; phytotoxicity rating CASOB ([7]; 63 g ai/ha): 10; phytotoxicity rating CASOB ([7]; 250 g ai/ha): 60; phytotoxicity rating ABUTH ([8]; 63 g ai/ha): 100; phytotoxicity rating ABUTH ([8]; 250 g ai/ha): 100; phytotoxicity rating CORN (crop damage) ([9]; 63 g ai/ha): 0; phytotoxicity rating CORN (crop damage) ([9]; 250 g ai/ha): 10; phytotoxicity rating RICE (crop damage) ([10]; 63 g ai/ha): 15; phytotoxicity rating RICE (crop damage) ([10]; 250 g ai/ha): 70; ECHCG phytotoxicity rating ([11]; 63 g ai/ha): 0; ECHCG phytotoxicity rating ([11]; 250 g ai/ha): 30; SETVI phytotoxicity rating ([12]; 63 g ai/ha): 10; SETVI phytotoxicity rating ([12]; 250 g ai/ha): 80; IPOHE phytotoxicity rating ([13]; 63 g ai/ha): 100; IPOHE phytotoxicity rating ([13]; 250 g ai/ha): 100; CHEAL phytotoxicity rating ([14]; 63 g ai/ha): 95; CHEAL phytotoxicity rating ([14]; 250 g ai/ha): 100; DIGSA phytotoxicity rating ([15]; 63 g ai/ha): 0; DIGSA phytotoxicity rating ([15]; 250 g ai/ha): 20; AMARE phytotoxicity rating ([16]; 63 g ai/ha): 90; AMARE phytotoxicity rating ([16]; 250 g ai/ha): 95; CASOB phytotoxicity rating ([17]; 63 g ai/ha): 60; CASOB phytotoxicity rating ([17]; 250 g ai/ha): 95; ABUTH phytotoxicity rating ([18]; 63 g ai/ha): 100; ABUTH phytotoxicity rating ([18]; 250 g ai/ha): 100; CORN phytotoxicity rating (crop damage) ([19]; 63 g ai/ha): 5; CORN phytotoxicity rating (crop damage) ([19]; 250 g ai/ha): 70; RICE phytotoxicity rating (crop damage) [20]: 0
